Patent US12385076B2, “Preparation and application of high-activity and high-safety cardamine violifolia selenoprotein standard sample” (priority 2022, dated 2025)

System: rat liver
Experiment: Safety animal testing: 3-month repeated oral administration, liver lesions
Format: in vivo
Details: male rats, repeated oral administration for 3 months; dose equivalent to 96 μgSe/kg BW for the human body

`O=[Se](O)O` [sodium selenite] was tested. Which liver lesions did it give?
Its liver lesions is “caused liver lesions”.
